Measurements as given in article PMC4626104, “Inhibition on Proteasome β1 Subunit Might Contribute to the Anti-Cancer Effects of Fangchinoline in Human Prostate Cancer Cells” (PLoS ONE, 2015).

Key:
[1] = target: T1, recombinant human proteasome β1 subunit (Homo sapiens, UniProt P28072); experiment: Enzyme activity of recombinant proteasome catalytic β1 subunit (Z-LLE-AMC); assay type: biochemical; conditions: 50 μM Z-LLE-AMC, 2 h incubation
T1 construct: His-Tag; made in house; host or cells: Escherichia coli
T1 sequence (P28072 1-239): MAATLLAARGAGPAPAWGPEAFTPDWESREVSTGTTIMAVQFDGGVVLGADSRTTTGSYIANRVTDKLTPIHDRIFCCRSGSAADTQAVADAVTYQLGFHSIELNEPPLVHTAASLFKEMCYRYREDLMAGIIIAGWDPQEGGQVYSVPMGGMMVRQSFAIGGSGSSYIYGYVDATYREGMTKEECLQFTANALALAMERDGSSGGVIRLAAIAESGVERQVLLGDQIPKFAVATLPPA
Method: Briefly, catalytic activity of the recombinant human proteasome β1 subunit was assayed by adding recombinant β1 subunit protein (30 μg) to 100 μL of proteasome activity assay buffer (10 mM Tris-HCL, pH 7.8, 5 mM adenosine triphosphate, 0.5 mM dithiothreitol and 5 mM MgCL2•6H2O) containing 50 μM Z-LLE-AMC in the presence of fangchinoline or tetrandrine at different concentrations or not. The hydrolase activity of the proteasome catalytic β1 subunit could release the fluorogenic AMC component from substrate Z-LLE-AMC and the AMC release was measured after 2 h incubation using a Microplate Reader Bio-Rad 550 with excitation and emission wavelengths of 360 and 465 nm, respectively.

[2] = system: T2, cellular proteasome of LnCap cells; experiment: Cellular proteasome activities of LnCap cells; assay type: cell-based, human; conditions: 24 h
T2 construct: endogenous in cells; host or cells: LnCap cells, whole cell extract
Method: Cells were treated with either solvent control (0.1% DMSO), fangchinoline at different concentrations, or 1 μM carfilzomib (positive control) for 24 h at 37 °C. The enzymatic activities of cellular proteasome in cell lysate were measured as reported in our previous paper. Briefly, cells were harvested, washed with PBS and then lysed in proteasome activity assay buffer for 30 min at 4°C. The homogenate was then centrifuged at 12000 × g for 30 min at 4°C. The supernatant was collected as whole cell extract and the protein content in the supernatant was measured with the Bradford reagent. Catalytic activities of cellular proteasome were assayed by adding whole cell extract (containing 30 μg protein) to 100 μL of proteasome activity assay buffer containing 50 μM fluorogenic peptide substrates such as Z-LLE-AMC for detecting C-L activity, Z-ARR-AMC for detecting T-L activity or Suc-LLVY-AMC for detecting CT-L activity, respectively. The release of fluorogenic AMC from the peptide substrates was then measured as described above.

[3] = system: PC-3 cells with over-expression of proteasome β1 subunit; experiment: MTT assay in PC-3 cells over-expressing proteasome β1 subunit (PSMB6 plasmid); assay type: cell-based, human; conditions: 24 h, 48 h or 72 h treatment
Method: (§1) The inhibitive effects of fangchinoline on proliferation of PC-3 cells or LnCap cells was observed by checking cell viability of cells using MTT assay as described before. Briefly, cells were seeded in 96-well plates at a density of 5×10^4 cells/mL for PC-3 cell and 4×10^4 cells/mL for LnCap cells. After overnight culture, the media were changed into fresh media containing various concentrations of fangchinoline or 0.1% DMSO (solvent control) for 24, 48 h or 72 h. Cell viability was evaluated by measuring the mitochondrial-dependent conversion of the yellow tetrazolium salt MTT to purple formazan crystals by metabolic active cells. The optical density (proportional to the number of live cells) was assessed with a Microplate Reader Bio-Rad 550 at 570 nm. IC50 value (half-maximal inhibitory concentration) was calculated by the Logit method.
Cells with over-expression of proteasome β1 subunit were obtained by transfection with pcDNA3.1 plasmid encoding full-length human PSMB6 cDNA as described before. For plasmid transfection, 5 × 10^5 cells were seeded into each well of a six-well plate until the cells reached approximately 80% confluence after cultured for 24 h. […]

[4] = system: PSMB6 knockdown PC-3 cells; experiment: MTT assay in PC-3 cells with knockdown of proteasome β1 subunit (PSMB6 siRNA); assay type: cell-based, human; conditions: 72 h treatment, vs negative control cells
Method: as §1
Validated siRNAs for PSMB6 (Sigma-Aldrich) were transfected into PC-3 cells by using Lipofectamine RNAiMAX (Invitrogen) according to the manufacturer’s protocol. Scrambled negative control siRNAs (Sigma-Aldrich) were used as negative control. Expression levels of PSMB6 (proteasome β1 subunit) in wide type cells, PSMB6 knockdown cells (cells treated with siRNAs for PSMB6), negative control cells (cells transfected with scrambled negative control siRNAs) were checked using Western blotting assay. […]

Structure (SMILES): COc1ccc2cc1Oc1ccc(cc1)C[C@H]1c3cc(c(OC)cc3CCN1C)Oc1c(O)c(OC)cc3c1[C@H](C2)N(C)CC3 [fangchinoline]
- Inhibition of enzyme activity of recombinant proteasome β1 subunit [1]: dose-dependently inhibited
- Effect on CT-L activity of cellular proteasome [2]: did not affect
- Effect on T-L activity of cellular proteasome [2]: did not affect
- Inhibition of C-L activity of cellular proteasome [2]: significantly inhibit
- Sensitivity of cells with over-expression of proteasome β1 subunit to cytotoxicity vs wild type and negative control [3]: more sensitive
- Effect of knockdown of proteasome β1 subunit on proliferation inhibition [4]: ameliorated proliferation-inhibiting effects
